Test results published in US7919456B2, “Connective tissue derived polypeptides” (Proteobioactives Pty Ltd., priority 2003, dated 2011).

Test system: rat collagen induced arthritis (CIA) model
Test: Rat collagen induced arthritis (CIA), prophylactic/therapeutic protocol
Assay type: in vivo, Female Wistar rats
Conditions: 6.3 mg/kg SC
[1] = 15 days treatment, n = 4, scored 0-4+

## O=C(O)CC([S-])C(=O)O.[Au+] (stereo not drawn) [ATM, aurothiomalate]
  Signs of arthritis Day 15 Weight change: +47 g
  Signs of arthritis Day 18 Weight change: +04 g
[1]
  Mean arthritis scores Day 13: 0.8
  Mean arthritis scores Day 15: 2.1
  Mean arthritis scores Day 18: 2.1
Fore paw
  Signs of arthritis Day 15 F/paw swell: 2.5 mm
  Signs of arthritis Day 18 F/paw swell: 3.2 mm
Rear paw
  Signs of arthritis Day 15 R/paw swell: 0.7 mm
  Signs of arthritis Day 18 R/paw swell: 0.8 mm
